In patent US8618074B2, “GPCR enhanced neuroprotection to treat brain injury” (Board of Regents of the University of Texas System, priority 2007, dated 2013):

Tests used:
Assay type in all cases: cell-based, mouse
[1] = test system: Neurons in the absence of astrocytes; assay: Neuronal survival under t-buOOH in the absence of astrocytes (transwells removed before ligand treatment)
Description: (§1) Primary cultures of astrocytes were prepared as previously published (Lin et al., 2005). C57BL/6 male mice were purchased from the National Institute of Aging and maintained in standard accredited housing conditions at the University of Texas Health Science Center Animal Facility. Animal protocols were approved by our Institutional Animal Care Use Committee. Astrocytes were cultured in DMEM F-12 media (Invitrogen, # 11039-021) supplemented with 2 mM glutamine, nonessential amino acids, 10% fetal calf serum, 100 U/ml penicillin/streptomycin (Cambrex BioScience Walkersville, #17-602E) and 1% fungizone (Invitrogen, #15290-018) at 37° C. in an atmosphere containing 5% CO2. The culture medium was changed every 3-5 days. Confluent cells were gently removed by a trypsin EDTA solution and re-plated on 35 mm glass bottom chambers (Bioptechs #04200415C) prior to imaging experiments 3-4 days later. Cells were maintained in plastic culture flasks until the final re-seeding of cells onto a glass bottom chamber and were passed up to 3 times for astrocyte only experiments. For co-culture experiments with neurons, primary astrocytes were plated directly onto corning transwell-clear permeable supports, which physically separates the two cell-types by ˜1 mm (# 07-200-170, Fisher scientific). Astrocytes were cultured in transwells until they were ˜70% confluent. Mouse cortical neurons (Cambrex Bio Science Walkersville Inc., # M-CX-300) were then cultured onto 6 well mat-tek glass bottom plates and maintained in Neurobasal Medium (Invitrogen, # 21103-049), 2 mM L-Glutamine (Cambrex BioScience Walkersville, #17-605E), 100 U/ml penicillin/streptomycin (Cambrex BioScience Walkersville, #17-602E) and B-27 with (Invitrogen, #17504-044) and without antioxidants (Invitrogen, #10889-038), which controls glia contamination to less than 0.5%. The transwell supports with cultured astrocytes were placed in the neuron seeded glass bottom chambers for four days before imaging and both cell types were then maintained in neuronal media. For neuron only experiments, the astrocytes on the transwell supports were removed prior to treatments and imaging.
Sensitivity of neurons to oxidative stress was assessed by treating cultures with 100 μM tert-butyl hydrogen peroxide (t-BuOOH, Sigma, #B-2633) for 3 hours. Neurons were then stained with Hoechst 33342 (10 μg/ml, Molecular Probes, #H-3570) to label all cell nuclei and calcein AM (2 μM, #C3100, Molecular Probes, #C3100). […] Calcein fluorescence is only observed in live cells that have maintained their plasma membrane integrity. Images were acquired on an inverted Nikon TE300 microscope with a Hamamatsu ORCAER camera and Open lab software (Improvision).
Activation of neuronal P2X receptors has been reported neurotoxic. Consequently, we further examined the affects of P2Y-R activation on neuronal survival in the absence of astrocytes. Neurons were co-cultured with astrocytes in transwell dishes that were removed from the cultures just prior to treating the neurons with purinergic ligands. Neurons in the absence of astrocytes were then exposed to t-buOOH (100 μM, 4.5 hours with normal B-27, 3 hours with antioxidant-free B-27) and cell viability was assessed by the ability of neurons to retain calcien. […] The same results were found for neurons initially co-cultured with old astrocytes. […]

astrocytes [2] = assay: Time until mitochondrial membrane potential (ΔΨ, TMRE) collapse during t-BuOOH oxidative stress; conditions: for time until ΔΨ collapse: oligomycin 1 μg/ml 30 min pretreatment, t-buOOH 100 μM; for mean time until ΔΨ collapse: oligomycin pretreatment + extracellular ATP 10 minutes, then oxidative stress
Description: as §1
Mitochondrial membrane potentials (ΔΨs) was measured as previously described using the potential sensitive dye tetra-methyl rhodamine ethyl ester (TMRE, Molecular Probes, #T-669) (Lin and Lechleiter, 2002). Images were acquired with a 60× oil 1.4 NA objective on a Nikon PCM2000 confocal microscope custom adapted for two-photon imaging. A Ti-sapphire Coherent Mira 900 Laser pumped with a 5W Verdi laser (Coherent Inc., Santa Clara, Calif.) was used to excite TMRE at 800 nm A neutral-density filter wheel was used to attenuate the laser intensity so that no detectable photobleaching of TMRE was observed.
To investigate this, primary cultures of astrocytes were prepared from the brains of young (4-6 months) and old (26-28 months) mice and re-plated on glass coverslips prior to each imaging experiment as previously described. Seeded glass coverslips were then sealed in an open chamber (Bioptechs Delta T) and perfused at 37° C. with the potential sensitive dye tetramethyl rhodamine ethyl ester (TMRE, 200 nM, Molecular Probes/Invitrogen) to label astrocyte mitochondria. Mitochondrial membrane potentials (ΔΨs) were measured every 5 minutes using two-photon microscopy. Each image is a maximum intensity projection of a z-stack of six optical sections (1-μm steps). Scale bar is 10 μm. Plated cells were continuously perfused at 37° C. with culture medium containing TMRE (200 nM) and imaged with 2-photon microscopy (800 nm). Oxidative stress was applied to the cells in the perfusate with t-BuOOH (100 μM). Cell viability was then monitored by the collapse of ΔΨ (TMRE fluorescence) to 10% of its initial value. The time course of ΔΨ collapse is plotted for 3 astrocytes (A1, A2, A3) in each culture (FIGS. 1B and 2B). Fluorescent units are scaled to 100% at 0 hours. […]

astrocytes [3] = assay: O2 consumption assay (Clark electrode respirometry)
Description: O2 consumption was monitored with a Clark electrode (Mitocell S200 micro respirometry system; Strathkelvin Instruments). Astrocytes (500 μl at 10^5 cells/ml) were loaded into a 500 μl MT200A Respirometer Chamber, suspended by a fixed-speed solid-state magnetic stirrer inside the chamber and maintained at 37° C. by a circulating water bath. O2 was monitored for 4 minutes before injecting 5 μl of ATP (200 μM) into the chamber. O2 consumption was then monitored for another 4 minutes. Changes in O2 levels were calculated by respirometry software. For control recordings, 5 μl of buffer was injected into chamber. Oligomycin astrocytes were treated with oligomycin (0.01 μM) for 30 minutes before trypsinization and loading into chamber.
To further investigate the importance of mitochondrial metabolism on the protective effect of P2Y-R activation, we first measured the rate of O2 consumption for astrocytes with and without P2Y-R activation. Primary cultures of astrocytes were grown to ˜70% confluency, gently removed by trypsin EDTA and resuspended in PBS buffer. Astrocytes (10^5 cells/ml) were then loaded into a 500 μl Respirometer Chamber MT200A) and maintained at 37° C. by a circulating water bath. FIG. 5A depicts plots of O2 levels in suspended astrocytes as labeled. FIG. 5B depicts a histogram showing the average change in O2 consumption with 2 μM ATP compared to untreated cells (control). Bars on the right show O2 consumption of Astrocytes are preloaded 0.01 uM Oligomycin (30 minutes).

[4] = neurons initially co-cultured with old astrocytes, astrocytes removed, t-buOOH 100 μM
[5] = neurons without astrocytes, normal B-27, t-buOOH 100 μM 4.5 hours

Row | Compound | % neurons alive [1, 4] [%] | % neurons alive [1, 5] [%] | average time until ΔΨ collapse (astrocytes [2]; old astrocytes, ATP 10 μM 10 min prior to t-BuOOH 100 μM) [h] | average time for ΔΨ to collapse (astrocytes [2]; young astrocytes, ATP 10 μM 10 min prior to t-BuOOH 100 μM) [h] | rate of O2 consumption (astrocytes [3]; bolus of ATP, 2 μM final concentration) [nmol/min] | % neurons alive ([1]; neurons without astrocytes, anti-oxidant-free B-27, t-buOOH 100 μM 3 hours) [%] | time until ΔΨ collapse (astrocytes [2]; old astrocytes) [h] | mean time until ΔΨ collapse (astrocytes [2]; old astrocytes) | time until ΔΨ collapse (astrocytes [2]; young astrocytes) [h] | mean time until ΔΨ collapse (astrocytes [2]; young astrocytes) | rate of O2 consumption (astrocytes [3]; oligomycin 0.01 μM 30 minutes + extracellular ATP) [nmol/min] | rate of O2 consumption (astrocytes [3]; oligomycin 0.01 μM, 30 minutes) [nmol/min]
1 | CSc1nc(N)c2ncn([C@@H]3O[C@H](COP(=O)(O)OP(=O)(O)O)[C@@H](O)[C@H]3O)c2n1 [2-MeSADP] | 72±3 | 74±3 | – | – | – | – | – | – | – | – | – | –
2 | Nc1ncnc2c1ncn2[C@@H]1O[C@H](COP(=O)(O)OP(=O)(O)OP(=O)(O)O)[C@@H](O)[C@H]1O [ATP] | 49±6 | 56±7 | 6.65 ± 0.24 | 7.35 ± 0.23 | 3.67 ± 0.3 | 18±2 | – | – | – | – | – | –
3 | CC[C@H]1/C=C/C=C/C[C@@H](C)[C@H](O)[C@@](C)(O)C(=O)[C@@H](C)[C@H](O)[C@@H](C)C(=O)[C@@H](C)[C@H](O)[C@@H](C)/C=C/C(=O)O[C@@H]2[C@H](C)[C@H](CC1)O[C@]1(CC[C@H](C)[C@H](C[C@@H](C)O)O1)[C@H]2C [oligomycin] | – | – | – | – | – | – | 4.16 ± 0.14 | 3.21±0.08 | 5.15 ± 0.08 | 4.69±0.23 | 1.19 ± 0.27 | 0.97 ± 0.21
